This experiment has as its target T1, WIZ (Homo sapiens, UniProt O95785+Q96SW2).
T1 construct: expressed in transfected cells
In words: Quantification of WIZ protein levels in HiBit tag fusion protein assay (293T cells). Format: cell-based. More on the design: Dmax: dose or concentration left out as unconfirmed. The note with it: for remaining activity at 25 µM / Dmax at 25 µM / Dmax: HEK-293T; for Dmax at 25 µM / % degradation of WIZ (100 − Amax): 100 − Amax, at 25 uM; for DC50: WIZ HiBit assay in 293T cells, about 18 hours, 10-point 5-fold dilution, top 25 μM, read-out: WIZ AC50. As for the experimental part:
The HiBit system from Promega was used to develop high-throughput and quantitative assays to measure changes in WIZ protein levels in response to compounds. The HiBit tag was derived from a split Nanoluciferase and has the following protein sequence: […] (SEQ ID NO: 1). The complementary fragment of Nanoluciferase (known as LgBit, from Promega), was added to the HiBit tag to form an active Nanoluciferase enzyme whose activity can be precisely measured. In this way, the levels of a fusion protein with the HiBit tag can be quantified in cell lysates.
Lentiviral vectors, based on the Invitrogen™ pLenti6.2/V5 DEST backbone were constructed that places the HiBit tag upstream of WIZ and expressed the fusion protein from an HSVTK promotor.
To ensure moderate and consistent expression of the HiBit-WIZ fusion protein across all cells in the population, stable cell lines were constructed from cells harboring a single copy of the construct. Lentivirus packaged with the constructs were made using the ViraPowerTMkit from Invitrogen™. 293T cells from ATCC (Catalog number: CRL-3216), were infected with the virus at low multiplicity of infection and selected by 5 μg/mL blasticidin in culture media for 2 weeks.
The levels of HiBit-WIZ tagged fusion proteins in compound-treated cell lines were measured as follows:
On day 1, cells were diluted to 1.0×10^6 cells/ml in normal growth medium. 20 μL of cell suspension were plated in each well of a solid white 384-well plate. Plates were incubated overnight in a 37° C. and 5% CO2 humidified tissue culture incubator.
On day 2, serial dilutions of compounds were made in 384-well plates. Compound plates were set up with DMSO in columns 1, 2, 23, 24, and 10-point compound dilution series in column 3-12 and column 13-22. 10 mM stock solution of compound were placed into column 3 or 13 and a 1:5 serial dilution was carried out until there was a 10-point dilution series per compound. 50 nL of diluted compounds were transferred into the plated cells by Echo® (Labcyte) acoustic transfer. The highest concentration of compound was 25 μM. Plates were incubated overnight (about 18 hours) in a 37° C. and 5% CO2 humidified tissue culture incubator.
On day 3, plates were removed from the incubator and allowed to equilibrate at room temperature for 60 minutes. HiBit substrate (Nano-Glo® HiBit Lytic Detection System, Promega Catalogue number: N3050) was added as described by the manufacturers protocols. Plates were incubated at room temperature for 30 minutes and luminescence was read using an EnVision® reader (PerkinElmer®). Data was analyzed and visualized using the Spotfire® software package.
WIZ Amax reflects the DMSO-normalized, curve-fitted percentage of WIZ-HiBit remaining at 25 uM. It was calculated by normalizing DMSO controls to 100%, parametric curve fitting of the dose response data (10-point, 5-fold), followed by calculation of response at 25 uM using the fitted equation.
(HiBiT is a short tag that completes a luciferase, so light tracks the accessible tagged protein.)

Setting [1] is: DMSO-normalized, curve-fitted percentage of WIZ-HiBit remaining at 25 uM, read-out: WIZ Amax.
Setting [2] is: read-out: % degradation of WIZ (100 − Amax).
Setting [3] is: DMSO-normalized, curve-fitted percentage of WIZ-HiBit remaining at 25 uM.

Where two headings read alike, the source gives them in different places. Bounds are passed on as bounds.

T1 sequence (O95785 whole entry): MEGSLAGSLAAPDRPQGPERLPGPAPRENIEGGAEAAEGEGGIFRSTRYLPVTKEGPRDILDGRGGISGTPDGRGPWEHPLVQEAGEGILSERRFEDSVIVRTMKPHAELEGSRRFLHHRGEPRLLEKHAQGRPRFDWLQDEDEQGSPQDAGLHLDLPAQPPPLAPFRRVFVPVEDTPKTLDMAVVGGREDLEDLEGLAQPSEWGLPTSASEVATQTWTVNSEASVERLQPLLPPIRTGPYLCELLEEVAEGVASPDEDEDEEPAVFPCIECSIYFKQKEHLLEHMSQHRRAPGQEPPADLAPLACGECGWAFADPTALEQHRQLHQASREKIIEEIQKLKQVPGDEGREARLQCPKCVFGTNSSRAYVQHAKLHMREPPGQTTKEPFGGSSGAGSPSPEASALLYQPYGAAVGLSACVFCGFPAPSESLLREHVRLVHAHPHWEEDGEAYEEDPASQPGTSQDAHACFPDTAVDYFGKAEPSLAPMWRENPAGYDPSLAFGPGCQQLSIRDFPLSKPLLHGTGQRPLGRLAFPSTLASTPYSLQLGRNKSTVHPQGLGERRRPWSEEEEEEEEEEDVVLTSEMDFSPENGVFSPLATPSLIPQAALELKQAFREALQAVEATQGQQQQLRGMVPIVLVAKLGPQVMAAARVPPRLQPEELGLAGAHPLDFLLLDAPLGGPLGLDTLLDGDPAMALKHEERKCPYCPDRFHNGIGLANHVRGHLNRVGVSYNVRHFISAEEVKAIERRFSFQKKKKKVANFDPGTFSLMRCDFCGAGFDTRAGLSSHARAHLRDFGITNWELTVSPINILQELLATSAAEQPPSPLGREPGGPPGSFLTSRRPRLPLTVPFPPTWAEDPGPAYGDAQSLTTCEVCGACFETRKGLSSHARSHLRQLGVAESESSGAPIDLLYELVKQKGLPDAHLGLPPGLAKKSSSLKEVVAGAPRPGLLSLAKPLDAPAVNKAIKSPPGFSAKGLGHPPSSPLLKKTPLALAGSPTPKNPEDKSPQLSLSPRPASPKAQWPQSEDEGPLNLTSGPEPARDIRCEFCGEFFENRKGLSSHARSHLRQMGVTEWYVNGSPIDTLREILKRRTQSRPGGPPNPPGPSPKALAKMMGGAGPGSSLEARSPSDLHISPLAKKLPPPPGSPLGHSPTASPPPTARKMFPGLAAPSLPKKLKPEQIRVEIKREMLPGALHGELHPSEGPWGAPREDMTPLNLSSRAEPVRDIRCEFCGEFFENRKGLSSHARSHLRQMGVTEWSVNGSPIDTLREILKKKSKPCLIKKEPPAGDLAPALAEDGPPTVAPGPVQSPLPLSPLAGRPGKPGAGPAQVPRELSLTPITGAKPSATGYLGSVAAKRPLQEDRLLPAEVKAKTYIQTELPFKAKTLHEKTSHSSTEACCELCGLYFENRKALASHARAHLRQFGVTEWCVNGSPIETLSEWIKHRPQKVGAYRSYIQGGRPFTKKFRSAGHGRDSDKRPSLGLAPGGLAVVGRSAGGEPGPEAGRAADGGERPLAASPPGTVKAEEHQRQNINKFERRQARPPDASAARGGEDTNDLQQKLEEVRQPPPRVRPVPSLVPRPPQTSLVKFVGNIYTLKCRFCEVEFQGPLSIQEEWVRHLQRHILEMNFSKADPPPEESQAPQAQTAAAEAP
T1 sequence (Q96SW2 whole entry): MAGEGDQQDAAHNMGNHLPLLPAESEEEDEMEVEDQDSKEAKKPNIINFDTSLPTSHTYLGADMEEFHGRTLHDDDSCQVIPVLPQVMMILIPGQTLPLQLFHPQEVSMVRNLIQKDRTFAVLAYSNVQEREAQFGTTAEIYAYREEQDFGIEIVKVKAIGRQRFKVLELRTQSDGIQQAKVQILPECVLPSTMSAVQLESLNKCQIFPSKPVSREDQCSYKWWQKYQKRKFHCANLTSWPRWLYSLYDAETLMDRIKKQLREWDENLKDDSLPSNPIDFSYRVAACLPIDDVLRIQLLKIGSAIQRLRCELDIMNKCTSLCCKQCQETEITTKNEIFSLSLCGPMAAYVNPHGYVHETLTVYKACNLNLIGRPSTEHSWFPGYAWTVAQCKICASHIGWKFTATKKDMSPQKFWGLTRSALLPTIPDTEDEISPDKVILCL
T1 sequence (Q16531 whole entry partner): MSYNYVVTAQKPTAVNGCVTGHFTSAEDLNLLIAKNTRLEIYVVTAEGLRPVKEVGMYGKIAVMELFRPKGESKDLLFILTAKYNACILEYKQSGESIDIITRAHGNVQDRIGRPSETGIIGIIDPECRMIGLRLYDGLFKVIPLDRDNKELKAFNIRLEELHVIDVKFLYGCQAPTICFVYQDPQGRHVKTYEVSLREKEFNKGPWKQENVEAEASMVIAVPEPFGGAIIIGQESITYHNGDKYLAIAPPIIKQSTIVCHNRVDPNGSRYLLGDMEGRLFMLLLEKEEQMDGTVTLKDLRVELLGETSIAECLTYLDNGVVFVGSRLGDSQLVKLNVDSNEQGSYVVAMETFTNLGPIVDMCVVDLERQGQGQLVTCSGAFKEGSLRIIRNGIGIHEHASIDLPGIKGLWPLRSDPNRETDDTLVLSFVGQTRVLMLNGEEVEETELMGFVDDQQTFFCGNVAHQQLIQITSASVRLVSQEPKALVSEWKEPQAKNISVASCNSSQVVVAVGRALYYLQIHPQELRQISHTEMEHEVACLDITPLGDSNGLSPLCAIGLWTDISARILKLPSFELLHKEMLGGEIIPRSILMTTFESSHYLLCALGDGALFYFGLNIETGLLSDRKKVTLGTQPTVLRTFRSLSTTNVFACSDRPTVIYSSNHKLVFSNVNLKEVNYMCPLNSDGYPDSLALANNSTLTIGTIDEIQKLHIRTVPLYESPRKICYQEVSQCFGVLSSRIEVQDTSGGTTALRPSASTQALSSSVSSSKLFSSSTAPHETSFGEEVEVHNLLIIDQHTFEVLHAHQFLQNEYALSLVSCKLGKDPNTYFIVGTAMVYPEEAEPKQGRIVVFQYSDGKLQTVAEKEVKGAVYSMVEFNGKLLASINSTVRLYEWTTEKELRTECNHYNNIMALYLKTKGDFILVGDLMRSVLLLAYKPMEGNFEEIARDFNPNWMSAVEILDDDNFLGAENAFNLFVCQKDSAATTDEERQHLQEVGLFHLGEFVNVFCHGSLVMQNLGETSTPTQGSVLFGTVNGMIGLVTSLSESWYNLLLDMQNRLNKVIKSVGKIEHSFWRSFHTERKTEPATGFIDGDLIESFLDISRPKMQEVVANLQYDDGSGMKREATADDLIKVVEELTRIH

As to `CCN1C[C@@H]2C[C@@H]2[C@@H](Oc2ccc3c(c2)CN(C2CCC(=O)NC2=O)C3=O)C1` (single isomer, unassigned) [Example 21, 3-(5-(((1R*,5R*,6S*)-3-ethyl-3-azabicyclo[4.1.0]heptan-5-yl)oxy)-1-oxoisoindolin-2-yl)piperidine-2,6-dione], the DC50 was 3.5 nM. Further, the remaining activity at 25 µM under setting [1] was determined as 25.7%. For the same molecule, the Dmax at 25 µM under setting [2] stood at 74.3%.

With `CCN1C[C@H]2C[C@H]2[C@@H](Oc2ccc3c(c2)CN(C2CCC(=O)NC2=O)C3=O)C1` (single isomer, unassigned) [Example 22, 3-(5-(((1S*,5R*,6R*)-3-ethyl-3-azabicyclo[4.1.0]heptan-5-yl)oxy)-1-oxoisoindolin-2-yl)piperidine-2,6-dione], the DC50 is 83 nM. Further, under setting [1], the remaining activity at 25 µM was 75.7%. Also, the Dmax at 25 µM under setting [2] came to 24.4%.

As to `CCN1CCC(C)(C)C(Oc2ccc3c(c2)CN(C2CCC(=O)NC2=O)C3=O)C1` (single isomer, unassigned) [Example 48, 3-(5-((1-ethyl-4,4-dimethylpiperidin-3-yl)oxy)-1-oxoisoindolin-2-yl)piperidine-2,6-dione], the DC50 was above 25000 nM. In addition, the remaining activity at 25 µM (read-out: WIZ Amax) amounted to 102%.

As for `CCN1CCC(C)(C)C(Oc2ccc3c(c2)CN(C2CCC(=O)NC2=O)C3=O)C1` (single isomer, unassigned) [Example 49, 3-(5-((1-ethyl-4,4-dimethylpiperidin-3-yl)oxy)-1-oxoisoindolin-2-yl)piperidine-2,6-dione], the DC50 came out at 83 nM. Also, the remaining activity at 25 µM under setting [1] was determined as 91.4%. Under setting [2], the Dmax at 25 µM was found to be 8.63%.

As for `CC[C@H](C)N1CCC(C)(C)C(Oc2ccc3c(c2)CN(C2CCC(=O)NC2=O)C3=O)C1` (single isomer, unassigned) [Example 50], the DC50 was above 25000 nM and the “% degradation of WIZ (100 − Amax)” value worked out at 2.38%. Besides, the remaining activity at 25 µM under setting [1] was 97.6%.

As for `CC[C@H](C)N1CCC(C)(C)C(Oc2ccc3c(c2)CN(C2CCC(=O)NC2=O)C3=O)C1` (single isomer, unassigned) [Example 51], the DC50 was 200 nM and the “% degradation of WIZ (100 − Amax)” value is on record as 12.81%. For the same molecule, under setting [3], the “WIZ Amax” value came out at 87.19%.

Take `CCN1C[C@H](OC)C[C@@H](Oc2ccc3c(c2)CN(C2CCC(=O)NC2=O)C3=O)C1` (single isomer, unassigned) [Example 65-1]: the DC50 stood at 1.4 nM. Under setting [1], the remaining activity at 25 µM was found to be 18.1%. Besides, the Dmax at 25 µM under setting [2] worked out at 81.9%.

For `CCN1C[C@H](OC)C[C@@H](Oc2ccc3c(c2)CN(C2CCC(=O)NC2=O)C3=O)C1` (single isomer, unassigned) [Example 65-2], the DC50 worked out at 1.2 nM and the “% degradation of WIZ (100 − Amax)” value was 80.33%. The “WIZ Amax” value under setting [3] turned out to be 19.67%.

With `CCN1C[C@H](C)C[C@@H](Oc2ccc3c(c2)CN(C2CCC(=O)NC2=O)C3=O)C1` (single isomer, unassigned) [Example 76-1], the DC50 came out at 1.6 nM. Besides, the remaining activity at 25 µM under setting [1] was determined as 13.8%. The Dmax at 25 µM under setting [2] stood at 86.2%.

On to `CCN1C[C@H](C)C[C@@H](Oc2ccc3c(c2)CN(C2CCC(=O)NC2=O)C3=O)C1` (single isomer, unassigned) [Example 76-2], for which the DC50 amounted to 0.6 nM and the “% degradation of WIZ (100 − Amax)” value is recorded as 87.18%. The “WIZ Amax” value under setting [3] is 12.82%.

Turning to `CCN1CCC[C@H](Oc2ccc3c(c2)CN(C2CCC(=O)NC2=O)C3=O)C1` (stereo partly drawn) [Example 2, 3-(5-(((S)-1-ethylpiperidin-3-yl)oxy)-1-oxoisoindolin-2-yl)piperidine-2,6-dione], the DC50 was 360 nM. Moreover, the Dmax under setting [2] amounted to 11.1%. Also, the remaining activity at 25 µM (read-out: WIZ Amax) came to 88.9%.

For the molecule `CC(C)CN1CCC[C@@H](Oc2ccc3c(c2)CN(C2CCC(=O)NC2=O)C3=O)C1` (stereo partly drawn) [Example 3, 3-(5-(((R)-1-isobutylpiperidin-3-yl)oxy)-1-oxoisoindolin-2-yl)piperidine-2,6-dione], the DC50 turned out to be 2 nM. Also, the remaining activity at 25 µM under setting [1] turned out to be 26.8%. Further, the Dmax at 25 µM under setting [2] was 73.2%.

Take `O=C1CCC(N2Cc3cc(O[C@@H]4CCCN(CC5COC5)C4)ccc3C2=O)C(=O)N1` (stereo partly drawn) [Example 4, 3-(5-(((R)-1-(oxetan-3-ylmethyl)piperidin-3-yl)oxy)-1-oxoisoindolin-2-yl)piperidine-2,6-dione]: the DC50 stood at 110 nM. Further, the remaining activity at 25 µM under setting [1] is 64.4%. For the same molecule, under setting [2], the Dmax at 25 µM was 35.6%.

As for `O=C1CCC(N2Cc3cc(O[C@@H]4CCCN(CC5CCC(F)(F)CC5)C4)ccc3C2=O)C(=O)N1` (stereo partly drawn) [Example 5, 3-(5-(((R)-1-((4,4-difluorocyclohexyl)methyl)piperidin-3-yl)oxy)-1-oxoisoindolin-2-yl)piperidine-2,6-dione], the DC50 was determined as 55 nM. The remaining activity at 25 µM under setting [1] is 77.3%. For the same molecule, the Dmax at 25 µM under setting [2] is 22.7%.

`O=C1CCC(N2Cc3cc(O[C@@H]4CCCN(CC5CCCCC5)C4)ccc3C2=O)C(=O)N1` (stereo partly drawn) [Example 6, 3-(5-(((R)-1-(cyclohexylmethyl)piperidin-3-yl)oxy)-1-oxoisoindolin-2-yl)piperidine-2,6-dione]: the DC50 was 31 nM. For the same molecule, under setting [1], the remaining activity at 25 µM amounted to 86.7%. Moreover, under setting [2], the Dmax at 25 µM came to 13.3%.

With `O=C1CCC(N2Cc3cc(O[C@@H]4CCCN(CC5CCC5)C4)ccc3C2=O)C(=O)N1` (stereo partly drawn) [Example 7, 3-(5-(((R)-1-(cyclobutylmethyl)piperidin-3-yl)oxy)-1-oxoisoindolin-2-yl)piperidine-2,6-dione], the DC50 was 1.1 nM. Further, the remaining activity at 25 µM under setting [1] turned out to be 38.9%. The Dmax at 25 µM under setting [2] came to 61.1%.

On to `CCCN1CCC[C@@H](Oc2ccc3c(c2)CN(C2CCC(=O)NC2=O)C3=O)C1` (stereo partly drawn) [Example 8, 3-(1-oxo-5-(((R)-1-propylpiperidin-3-yl)oxy)isoindolin-2-yl)piperidine-2,6-dione], for which the DC50 was 28 nM. Further, the remaining activity at 25 µM under setting [1] came out at 33%. Besides, the Dmax at 25 µM under setting [2] stood at 67%.

`CC(C)N1CCC[C@@H](Oc2ccc3c(c2)CN(C2CCC(=O)NC2=O)C3=O)C1` (stereo partly drawn) [Example 9, 3-(5-(((R)-1-isopropylpiperidin-3-yl)oxy)-1-oxoisoindolin-2-yl)piperidine-2,6-dione]: the DC50 stood at 4.2 nM. Besides, the Dmax (read-out: % degradation of WIZ (100 − Amax), 100 − Amax) was 71.5%. The remaining activity at 25 µM (read-out: WIZ Amax, DMSO-normalized, curve-fitted percentage of WIZ-HiBit remaining at 25 uM) worked out at 28.5%.

As to `O=C1CCC(N2Cc3cc(O[C@@H]4CCCN(C5CCOCC5)C4)ccc3C2=O)C(=O)N1` (stereo partly drawn) [Example 10, 3-(1-oxo-5-(((R)-1-(tetrahydro-2H-pyran-4-yl)piperidin-3-yl)oxy)isoindolin-2-yl)piperidine-2,6-dione], the DC50 worked out at 33 nM. In addition, under setting [1], the remaining activity at 25 µM is 45.5%. Moreover, the Dmax at 25 µM under setting [2] was found to be 54.5%.

For `O=C1CCC(N2Cc3cc(O[C@@H]4CCCN(C5CC6(COC6)C5)C4)ccc3C2=O)C(=O)N1` (stereo partly drawn) [Example 11, 3-(5-(((R)-1-(2-oxaspiro[3.3]heptan-6-yl)piperidin-3-yl)oxy)-1-oxoisoindolin-2-yl)piperidine-2,6-dione], the DC50 came out at 110 nM. In addition, under setting [1], the remaining activity at 25 µM worked out at 56.4%. Also, the Dmax at 25 µM under setting [2] is 43.6%.

For the molecule `O=C1CCC(N2Cc3cc(O[C@@H]4CCCN(C5COC5)C4)ccc3C2=O)C(=O)N1` (stereo partly drawn) [Example 12, 3-(5-(((R)-1-(oxetan-3-yl)piperidin-3-yl)oxy)-1-oxoisoindolin-2-yl)piperidine-2,6-dione], the DC50 is 130 nM. Further, under setting [1], the remaining activity at 25 µM was 68.5%. For the same molecule, the Dmax at 25 µM under setting [2] was 31.5%.

The values above are taken from patent publication US12103919B2, “3-(5-oxy)-1-oxoisoindolin-2-yl)piperidine-2,6-dione derivatives and uses thereof” (NOVARTIS AG, priority 2021, dated 2024).
